Test results reported in patent US4678781A, “3-substituted-aminomethyl cephalosporin derivatives” (ICI Pharma, priority 1983, dated 1987).
Values after ≈ are worked out from the molar mass of the structure shown.

What was measured:
[1] = Toxicity observation in mice after subcutaneous administration; assay type: in vivo; conditions: two single doses over one day, each at least five times the PD50 against Salmonella dublin
Protocol: A number of compounds were administered to mice at doses in excess of those required to afford protection against bacterial infections. Thus for example the compounds of Examples 23, 70 and 74 were administered subcutaneously to mice in two single doses over one day, each dose being at least five times the minimum effective dose which protected 50% of the mice against infection with Salmonella dublin (PD50).

Ent. cloacae = experiment: MIC, agar-dilution technique, standard in vitro test; assay type: cell-based; conditions: Enterobacter cloacae; strain code A8401054; Isosensitest agar; inoculum 10^4 CFU./spot; read-out: minimum inhibitory concentration (MIC)
From the text: (§1) The results set out in the following Table are illustrative of the biological activity of the compounds of the present invention. The listed compounds all carry a 1-methyl-4-pyridinioaminomethyl radical at the 3-position of the cephalosporin nucleus and a variety of known substituents at the 7-position. The following results are those obtained on a standard in vitro test system and using Isosensitest agar medium. The antibacterial activity is described in terms of the minimum inhibitory concentration (MIC) determined by agar-dilution technique with an inoculum size of 10^4 CFU./spot.

Serr. marcescens = experiment: as above; assay type: cell-based; conditions: Serratia marcescens; strain code A8421020; Isosensitest agar; inoculum 10^4 CFU./spot; read-out: minimum inhibitory concentration (MIC)
From the text: as §1

E. coli = experiment: as above; assay type: cell-based; conditions: Escherichia coli; strain code A8341098; Isosensitest agar; inoculum 10^4 CFU./spot; read-out: minimum inhibitory concentration (MIC)
From the text: as §1

Prot. mirabilis = experiment: as above; assay type: cell-based; conditions: Proteus mirabilis; strain code A8432057; Isosensitest agar; inoculum 10^4 CFU./spot; read-out: minimum inhibitory concentration (MIC)
From the text: as §1

Staph. aureus = experiment: as above; assay type: cell-based; conditions: Staphylococcus aureus; strain code A8601052; Isosensitest agar; inoculum 10^4 CFU./spot; read-out: minimum inhibitory concentration (MIC)
From the text: as §1

Sal. dublin = experiment: as above; assay type: cell-based; conditions: Salmonella enterica; strain code A8369001; Isosensitest agar; inoculum 10^4 CFU./spot; read-out: minimum inhibitory concentration (MIC)
From the text: as §1

Kleb. aerogenes = experiment: as above; assay type: cell-based; conditions: Klebsiella aerogenes; strain code A8391027; Isosensitest agar; inoculum 10^4 CFU./spot; read-out: minimum inhibitory concentration (MIC)
From the text: as §1

Strep. pyogenes = experiment: as above; assay type: cell-based; conditions: Streptococcus pyogenes; strain code A8681018; Isosensitest agar; inoculum 10^4 CFU./spot; read-out: minimum inhibitory concentration (MIC)
From the text: as §1

P. aeruginosa = experiment: as above; assay type: cell-based; conditions: Pseudomonas aeruginosa; strain code A8101028; Isosensitest agar; inoculum 10^4 CFU./spot; read-out: minimum inhibitory concentration (MIC)
From the text: as §1

Compound | overt toxic symptoms or side effects [1] | MIC (Ent. cloacae) | MIC (Serr. marcescens) | MIC (E. coli) | MIC (Prot. mirabilis) | MIC (Staph. aureus) | MIC (Sal. dublin) | MIC (Kleb. aerogenes) | MIC (Strep. pyogenes) | MIC (P. aeruginosa)
C=CCO/N=C(\C(=O)N[C@@H]1C(=O)N2C(C(=O)[O-])=C(CNc3cc[n+](C)cc3)CS[C@H]12)c1csc(N)n1 [Example 70] | No overt toxic symptoms or side effects attributable to the administered compounds were noted | 1 µg/mL (≈ 1.89 µM) | 0.5 µg/mL (≈ 0.944 µM) | 0.25 µg/mL (≈ 0.472 µM) | 0.5 µg/mL (≈ 0.944 µM) | 1 µg/mL (≈ 1.89 µM) | 0.5 µg/mL (≈ 0.944 µM) | 0.13 µg/mL (≈ 0.245 µM) | < 0.016 µg/mL | 32 µg/mL (≈ 60.4 µM)
CO/N=C(\C(=O)N[C@@H]1C(=O)N2C(C(=O)O)=C(CNc3cc[n+](C)cc3)CS[C@H]12)c1csc(N)n1 [Example 9] | – | 0.064 µg/mL | 0.13 µg/mL | 0.032 µg/mL | 0.064 µg/mL | 1 µg/mL | 0.25 µg/mL | 0.032 µg/mL | 0.016 µg/mL | 16 µg/mL
C[n+]1ccc(NCC2=C(C(=O)[O-])N3C(=O)[C@@H](NC(=O)[C@H](NC(=O)c4n[nH]c(=O)nc4O)c4ccc(O)cc4)[C@H]3SC2)cc1 [Example 82] | – | > 128 µg/mL | > 128 µg/mL | 128 µg/mL (≈ 210 µM) | 32 µg/mL (≈ 52.6 µM) | 2 µg/mL (≈ 3.29 µM) | 64 µg/mL (≈ 105 µM) | 64 µg/mL (≈ 105 µM) | 0.5 µg/mL (≈ 0.822 µM) | > 12 µg/mL
CCN1CCN(C(=O)N[C@@H](C(=O)N[C@@H]2C(=O)N3C(C(=O)[O-])=C(CNc4cc[n+](C)cc4)CS[C@H]23)c2ccc(O)cc2)C(=O)C1=O [Example 81] | – | 4 µg/mL (≈ 6.27 µM) | 8 µg/mL (≈ 12.5 µM) | 2 µg/mL (≈ 3.14 µM) | 32 µg/mL (≈ 50.2 µM) | 1 µg/mL (≈ 1.57 µM) | 8 µg/mL (≈ 12.5 µM) | 2 µg/mL (≈ 3.14 µM) | 0.13 µg/mL (≈ 0.204 µM) | > 128 µg/mL
C[n+]1ccc(NCC2=C(C(=O)[O-])N3C(=O)[C@@H](NC(=O)/C(=N\OC4(C(=O)O)CCC4)c4csc(N)n4)[C@H]3SC2)cc1 [Example 74] | No overt toxic symptoms or side effects attributable to the administered compounds were noted | 1 µg/mL (≈ 1.7 µM) | 1 µg/mL (≈ 1.7 µM) | 0.25 µg/mL (≈ 0.425 µM) | 0.13 µg/mL (≈ 0.221 µM) | 8 µg/mL (≈ 13.6 µM) | 0.13 µg/mL (≈ 0.221 µM) | 0.5 µg/mL (≈ 0.851 µM) | 0.25 µg/mL (≈ 0.425 µM) | 4 µg/mL (≈ 6.81 µM)
C[n+]1ccc(NCC2=C(C(=O)[O-])N3C(=O)[C@@H](NC(=O)/C(=N\OCC#N)c4csc(N)n4)[C@H]3SC2)cc1 [Example 96] | – | 0.25 µg/mL (≈ 0.473 µM) | 0.032 µg/mL (≈ 0.0605 µM) | 0.032 µg/mL (≈ 0.0605 µM) | 0.064 µg/mL (≈ 0.121 µM) | 0.5 µg/mL (≈ 0.946 µM) | 0.064 µg/mL (≈ 0.121 µM) | < 0.016 µg/mL | – | 32 µg/mL (≈ 60.5 µM)
C[n+]1ccc(NCC2=C(C(=O)[O-])N3C(=O)[C@@H](NC(=O)/C(=N\OC(C)(C)C(=O)O)c4csc(N)n4)[C@H]3SC2)cc1 [Example 23] | No overt toxic symptoms or side effects attributable to the administered compounds were noted | 0.5 µg/mL (≈ 0.869 µM) | 0.25 µg/mL (≈ 0.434 µM) | 0.13 µg/mL (≈ 0.226 µM) | 0.064 µg/mL (≈ 0.111 µM) | 8 µg/mL (≈ 13.9 µM) | 0.25 µg/mL (≈ 0.434 µM) | 0.13 µg/mL (≈ 0.226 µM) | 0.13 µg/mL (≈ 0.226 µM) | 2 µg/mL (≈ 3.47 µM)
